pEC50: −log10 of the molar value.

What is called pEC50 is the negative decadic logarithm of the EC50, by convention in mol/L. In general, Emax refers to the maximal effect, on the per cent scale that the assay sets.

In one assay the target is T1, AMPK 111 (Homo sapiens, UniProt Q13131+Q9Y478).
T1 construct: open reading frames encoding the full-length α1, β1 and δ1 subunits of human AMPK; made in house; host or cells: E. coli BL21-CodonPlus (DE3)-RIPL, pET-14b
Kind of assay: Biochemical profiling of AMPK activators by AMPK111 (HTRF/TR-FRET assay, SAMS peptide, PP2A dephosphorylation protection). The note with it: for pEC50: phosphorylated AMPK 111 (α1β1δ1 as printed), 11 point dilution, duplicate, 4-parameter fit; for Emax: phosphorylated AMPK 111, maximal activation. On the procedure: (§1) The biochemical EC50 (half-maximal concentration required for full activation) of compounds for the activation of AMPK was evaluated by HTRF assay using LANCE Ultra ULight-Acetyl-CoA Carboxylase (SAMS) peptide (commercially available, Perkin Elmer catalog TRF0133-M).
Following a fifteen-minute room temperature incubation, 5 μL of 30 nM protein phosphatase PP2A (isolation detailed above) diluted in the assay buffer was added to the plate, to dephosphorylate pThr172 of AMPK. […] The reaction was terminated after 60 minutes incubation at room temperature, by the addition of 5 μL of stop and detection cocktail, which consisted of 1× Perkin Elmer Lance buffer (Perkin Elmer catalog number CR97-100), 40 mM EDTA (Thermo Fisher catalog number BP2482-100), and 2 nM Eu-anti-Acetyl CoA Carboxylase [pSer70] antibody (Perkin Elmer, TRF0208-M).
For orientation: TR-FRET usually uses a lanthanide donor and a delayed reading to cut background.

Another assay deals with T2, AMPK 221 (Homo sapiens, UniProt O43741+P54646).
T2 construct: open reading frames encoding the full-length α2, β2 and δ1 subunits of human AMPK; made in house; host or cells: E. coli BL21-CodonPlus (DE3)-RIPL, pET-14b
T2 sequence (P54646 whole entry): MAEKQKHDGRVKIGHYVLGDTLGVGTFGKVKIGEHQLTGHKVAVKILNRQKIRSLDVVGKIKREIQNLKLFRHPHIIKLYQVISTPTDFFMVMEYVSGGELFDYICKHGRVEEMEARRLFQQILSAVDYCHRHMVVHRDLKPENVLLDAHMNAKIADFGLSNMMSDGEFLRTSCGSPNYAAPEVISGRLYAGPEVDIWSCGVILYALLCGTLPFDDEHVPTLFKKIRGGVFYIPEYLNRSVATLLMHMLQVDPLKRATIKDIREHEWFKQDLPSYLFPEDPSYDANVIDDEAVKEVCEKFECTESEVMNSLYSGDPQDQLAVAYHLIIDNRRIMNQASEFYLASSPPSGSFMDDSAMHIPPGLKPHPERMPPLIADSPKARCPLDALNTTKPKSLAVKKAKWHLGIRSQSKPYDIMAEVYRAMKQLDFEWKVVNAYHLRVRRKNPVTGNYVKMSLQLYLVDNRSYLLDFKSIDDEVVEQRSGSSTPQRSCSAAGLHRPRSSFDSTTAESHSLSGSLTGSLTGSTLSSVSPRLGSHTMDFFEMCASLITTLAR
T2 sequence (O43741 whole entry): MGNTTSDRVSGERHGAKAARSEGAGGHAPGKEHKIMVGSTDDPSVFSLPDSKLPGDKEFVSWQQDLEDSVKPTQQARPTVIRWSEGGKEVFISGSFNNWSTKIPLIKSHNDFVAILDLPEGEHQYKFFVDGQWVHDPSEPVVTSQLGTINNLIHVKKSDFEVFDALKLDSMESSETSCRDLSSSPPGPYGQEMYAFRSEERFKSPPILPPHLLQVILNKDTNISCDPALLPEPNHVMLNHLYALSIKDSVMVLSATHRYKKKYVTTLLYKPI
T2 sequence (P54619 whole entry partner): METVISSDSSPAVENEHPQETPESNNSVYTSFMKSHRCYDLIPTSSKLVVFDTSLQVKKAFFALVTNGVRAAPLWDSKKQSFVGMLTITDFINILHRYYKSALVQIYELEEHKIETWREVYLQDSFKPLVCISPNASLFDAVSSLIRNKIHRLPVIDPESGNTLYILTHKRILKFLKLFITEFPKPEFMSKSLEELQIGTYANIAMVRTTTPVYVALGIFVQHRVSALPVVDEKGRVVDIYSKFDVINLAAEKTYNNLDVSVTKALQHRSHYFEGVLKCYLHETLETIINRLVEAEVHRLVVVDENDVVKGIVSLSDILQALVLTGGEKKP
Kind of assay: Biochemical profiling of AMPK activators by AMPK221 (HTRF/TR-FRET assay, SAMS peptide, PP2A dephosphorylation protection). The note with it: for pEC50: phosphorylated AMPK 221 (α2β2δ1), 11 point dilution, duplicate, 4-parameter fit; for Emax: phosphorylated AMPK 221, maximal activation. The protocol: as §1
The reaction was terminated after 60 minutes incubation at room temperature by the addition of 5 μL of stop and detection cocktail, which consisted of 1× Perkin Elmer Lance buffer (Perkin Elmer catalog number CR97-100), 40 mM EDTA (Thermo Fisher catalog number BP2482-100), and 2 nM Eu-anti-Acetyl CoA Carboxylase [pSer70] antibody (Perkin Elmer, TRF0208-M). Plates were spun at 1000 RPM, 10 seconds.

T1 sequence (Q13131 whole entry): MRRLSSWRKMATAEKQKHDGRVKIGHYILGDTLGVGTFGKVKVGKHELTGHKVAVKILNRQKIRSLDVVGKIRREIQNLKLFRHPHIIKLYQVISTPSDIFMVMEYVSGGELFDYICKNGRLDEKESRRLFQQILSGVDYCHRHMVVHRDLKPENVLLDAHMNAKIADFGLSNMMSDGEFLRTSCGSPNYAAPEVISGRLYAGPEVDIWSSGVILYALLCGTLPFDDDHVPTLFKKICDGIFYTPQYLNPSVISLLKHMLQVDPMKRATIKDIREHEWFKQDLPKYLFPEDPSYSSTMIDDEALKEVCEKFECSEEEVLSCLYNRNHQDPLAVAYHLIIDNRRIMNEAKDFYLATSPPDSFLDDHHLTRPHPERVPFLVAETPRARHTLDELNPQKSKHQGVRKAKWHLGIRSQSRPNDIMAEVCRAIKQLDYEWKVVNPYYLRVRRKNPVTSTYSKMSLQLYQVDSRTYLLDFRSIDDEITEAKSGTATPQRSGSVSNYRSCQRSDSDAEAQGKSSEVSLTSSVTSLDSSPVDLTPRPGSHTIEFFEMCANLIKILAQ
T1 sequence (Q9Y478 whole entry): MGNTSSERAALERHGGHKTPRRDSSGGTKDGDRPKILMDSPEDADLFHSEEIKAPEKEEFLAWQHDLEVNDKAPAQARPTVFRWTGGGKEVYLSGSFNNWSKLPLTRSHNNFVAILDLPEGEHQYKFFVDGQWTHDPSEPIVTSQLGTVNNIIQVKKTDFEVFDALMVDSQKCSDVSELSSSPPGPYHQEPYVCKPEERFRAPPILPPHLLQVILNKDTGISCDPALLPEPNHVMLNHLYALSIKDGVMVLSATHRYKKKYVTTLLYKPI
T1 sequence (P54619 whole entry partner): as the sequence (P54619 whole entry partner) above

Take `CC(=O)N(C)c1ccc(-c2ccc(-c3cc4c(CCC(=O)O)n[nH]c4cc3Cl)cc2)cc1` [Example 39, 3-(6-chloro-5-(4′-(N-methylacetamido)-[1,1′-biphenyl]-4-yl)-1H-indazol-3-yl)propanoic acid]: at AMPK 111, the pEC50 was 6.96 and the Emax is 69%. On AMPK 221, this molecule gave a pEC50 of 6.66 and an Emax of 59%.

On to `O=C(O)CCc1n[nH]c2cc(Cl)c(-c3ccc(-c4ccc(F)cc4O)cc3)cc12` [Example 47, 3-(6-chloro-5-(4′-fluoro-2′-hydroxy-[1,1′-biphenyl]-4-yl)-1H-indazol-3-yl)propanoic acid], for which, at AMPK 111, the pEC50 is 6.95 and the Emax came out at 83%. For the same molecule, on AMPK 221, the pEC50 is 6.55 and the Emax stood at 59%.

At AMPK 111, `O=C(O)CCc1n[nH]c2cc(Cl)c(-c3ccc(-c4cc(F)ccc4O)cc3)cc12` [Example 70, 3-(6-chloro-5-(5′-fluoro-2′-hydroxy-[1,1′-biphenyl]-4-yl)-1H-indazol-3-yl)propanoic acid] had a pEC50 of 6.55 and an Emax of 74%. On AMPK 221, the pEC50 was 5.96 and the Emax is 49%.

For `COC(=O)c1ccc(-c2ccc(-c3cc4c(CCC(=O)O)n[nH]c4cc3Cl)cc2)c(O)c1` [Example 31, 3-(6-Chloro-5-(2′-hydroxy-4′-(methoxycarbonyl)-[1,1′-biphenyl]-4-yl)-1H-indazol-3-yl)propanoic acid], the pEC50 at AMPK 111 is 7.24; on AMPK 221 it was 6.72. Besides, the values for the Emax at AMPK 111 and at AMPK 221 were 84% and 61%, respectively.

Turning to `O=C(O)CCc1n[nH]c2cc(Cl)c(-c3ccc(-c4c(O)cccc4F)cc3)cc12` [Example 50, 3-(6-chloro-5-(2′-fluoro-6′-hydroxy-[1,1′-biphenyl]-4-yl)-1H-indazol-3-yl)propanoic acid], the figures for the pEC50 on AMPK 111 and at AMPK 221 were 6.82 and 6.47, respectively. Moreover, the Emax is 76% on AMPK 111 and 55% on AMPK 221.

At AMPK 111, `CS(=O)(=O)c1ccc(-c2ccc(-c3cc4c(CCC(=O)O)n[nH]c4cc3Cl)cc2)cc1` [Example 44, 3-(6-chloro-5-(4′-(methylsulfonyl)-[1,1′-biphenyl]-4-yl)-1H-indazol-3-yl)propanoic acid] gave a pEC50 of 7.07 and an Emax of 79%. On AMPK 221, this molecule showed a pEC50 of 6.69 and an Emax of 52%.

Consider `O=C(O)CCc1n[nH]c2cc(F)c(-c3ccc(-c4ccccc4O)cc3)cc12` [Example 33, 3-(6-fluoro-5-(2′-hydroxy-[1,1′-biphenyl]-4-yl)-1H-indazol-3-yl)propanoic acid], for which, on AMPK 111, the pEC50 is 6.52 and the Emax came out at 57%. At AMPK 221, this molecule showed a pEC50 of 6.71 and an Emax of 57%.

With `O=C(O)CCc1n[nH]c2cc(Cl)c(-c3ccc(-c4ccccc4)cc3)cc12` [Example 51, 3-(5-([1,1′-biphenyl]-4-yl)-6-chloro-1H-indazol-3-yl)propanoic acid], the pEC50 at AMPK 111 is 6.51; at AMPK 221, 6.45. The values for the Emax at AMPK 111 and on AMPK 221 were 71% and 22%, respectively.

Regarding `NCc1ccc(-c2ccc(-c3cc4c(CCC(=O)O)n[nH]c4cc3Cl)cc2)c(O)c1` [Example 8, 3-(5-(4′-(Aminomethyl)-2′-hydroxy-[1,1′-biphenyl]-4-yl)-6-chloro-1H-indazol-3-yl)propanoic acid], on AMPK 111, the pEC50 was 7.59 and the Emax was 75%. Also, at AMPK 221, the pEC50 is 7.42 and the Emax was found to be 56%.

Regarding `CC(C)Oc1cccc(-c2ccc(-c3cc4c(CCC(=O)O)n[nH]c4cc3Cl)cc2)c1O` [Example 37, 3-(6-chloro-5-(2′-hydroxy-3′-isopropoxy-[1,1′-biphenyl]-4-yl)-1H-indazol-3-yl)propanoic acid], at AMPK 111, the pEC50 is 6.33 and the Emax was determined as 70%. Also, at AMPK 221, the pEC50 was 6.69 and the Emax is 52%.

Regarding `NC(=O)c1ccc(-c2ccc(-c3cc4c(CCC(=O)O)n[nH]c4cc3Cl)cc2)c(O)c1` [Example 6, 3-(5-(4′-Carbamoyl-2′-hydroxy-[1,1′-biphenyl]-4-yl)-6-chloro-1H-indazol-3-yl)propanoic acid], the pEC50 on AMPK 111 was 8.22; on AMPK 221, 8.40. For the same molecule, the results for the Emax on AMPK 111 and on AMPK 221 were 64% and 53%, respectively.

As for `Cc1cscc1-c1ccc(-c2cc3c(CCC(=O)O)n[nH]c3cc2Cl)cc1` [Example 60, 3-(6-chloro-5-(4-(4-methylthiophen-3-yl)phenyl)-1H-indazol-3-yl)propanoic acid], the pEC50 on AMPK 111 is 6.62; on AMPK 221 it was 6.27. Moreover, the Emax on AMPK 111 stood at 53%; at AMPK 221, 21%.

On AMPK 111, `COc1ccc(F)c(-c2ccc(-c3cc4c(CCC(=O)O)n[nH]c4cc3Cl)cc2)c1O` [Example 26, 3-(6-chloro-5-(6′-fluoro-2′-hydroxy-3′-methoxy-[1,1′-biphenyl]-4-yl)-1H-indazol-3-yl)propanoic acid] had a pEC50 of 6.97 and an Emax of 77%. On AMPK 221, this molecule gave a negative-log EC50 (pEC50) of 6.94 and a maximal response (Emax) of 66%.

On AMPK 111, `COc1nc(-c2ccc(-c3cc4c(CCC(=O)O)n[nH]c4cc3Cl)cc2)cs1` [Example 59, 3-(6-chloro-5-(4-(2-methoxythiazol-4-yl)phenyl)-1H-indazol-3-yl)propanoic acid] had a pEC50 of 6.22 and an Emax of 30%. On AMPK 221, this molecule had a pEC50 of 6.26 and an Emax of 13%.

As for `CSc1ccc(-c2ccc(-c3cc4c(CCC(=O)O)n[nH]c4cc3Cl)cc2)c(O)c1` [Example 63, 3-(6-chloro-5-(2′-hydroxy-4′-(methylthio)-[1,1′-biphenyl]-4-yl)-1H-indazol-3-yl)propanoic acid], on AMPK 111, the pEC50 is 6.55 and the Emax was found to be 56%. For the same molecule, at AMPK 221, the pEC50 was 6.25 and the Emax is 64%.

For `O=C(O)CCc1n[nH]c2cc(Cl)c(-c3ccc(-c4ccc(Cl)cc4O)cc3)cc12` [Example 64, 3-(6-chloro-5-(4′-chloro-2′-hydroxy-[1,1′-biphenyl]-4-yl)-1H-indazol-3-yl)propanoic acid], at AMPK 111, the pEC50 was 6.69 and the Emax was 76%. At AMPK 221, this molecule had a negative-log EC50 (pEC50) of 6.21 and an Emax of 48%.

Consider `O=C(O)CCc1n[nH]c2cc(Cl)c(-c3ccc(-c4cnsc4)cc3)cc12` [Example 65, 3-(6-chloro-5-(4-(isothiazol-4-yl)phenyl)-1H-indazol-3-yl)propanoic acid], for which, at AMPK 111, the pEC50 is 6.58 and the Emax is 79%. On AMPK 221, this molecule gave a pEC50 of 6.10 and an Emax of 58%.

On AMPK 111, `O=C(O)CCc1n[nH]c2cc(Cl)c(-c3ccc(-c4ccc(F)c(F)c4O)cc3)cc12` [Example 71, 3-(6-chloro-5-(3′,4′-difluoro-2′-hydroxy-[1,1′-biphenyl]-4-yl)-1H-indazol-3-yl)propanoic acid] gave a pEC50 of 6.55 and an Emax of 73%. At AMPK 221, this molecule had a pEC50 of 6.00 and an Emax of 60%.

Take `COc1ccc(C)c(-c2ccc(-c3cc4c(CCCC(=O)O)n[nH]c4cc3Cl)cc2)c1O` [Example 78, 4-(6-chloro-5-(2′-hydroxy-3′-methoxy-6′-methyl-[1,1′-biphenyl]-4-yl)-1H-indazol-3-yl)butanoic acid]: the pEC50 at AMPK 111 was 7.03; at AMPK 221, 7.06. Besides, the Emax at AMPK 111 amounted to 78%; on AMPK 221, 66%.

At AMPK 111, `O=C(O)CCc1n[nH]c2cc(Cl)c(-c3ccc(-c4csc(CO)n4)cc3)cc12` [Example 66, 3-(6-chloro-5-(4-(2-(hydroxymethyl)thiazol-4-yl)phenyl)-1H-indazol-3-yl)propanoic acid] showed a pEC50 of 6.44 and an Emax of 74%. On AMPK 221, this molecule gave a pEC50 of 5.96 and an Emax of 63%.

Turning to `CC(=O)NCc1ccc(-c2ccc(-c3cc4c(CCC(=O)O)n[nH]c4cc3Cl)cc2)cc1` [Example 41, 3-(5-(4′-(acetamidomethyl)-[1,1′-biphenyl]-4-yl)-6-chloro-1H-indazol-3-yl)propanoic acid], on AMPK 111, the pEC50 is 7.15 and the Emax came out at 66%. In addition, on AMPK 221, the pEC50 is 6.63 and the Emax was determined as 65%.

On AMPK 111, `COc1cccc(-c2ccc(-c3cc4c(CCC(=O)O)n[nH]c4cc3Cl)cc2)c1O` [Example 2, 3-(6-Chloro-5-(2′-hydroxy-3′-methoxy-[1,1′-biphenyl]-4-yl)-1H-indazol-3-yl)propanoic acid] had a pEC50 of 7.54 and an Emax of 80%. At AMPK 221, this molecule showed a pEC50 of 7.47 and an Emax of 66%.

Source of the values: patent publication US20240336572A1, “SUBSTITUTED INDAZOLE PROPIONIC ACID DERIVATIVE COMPOUNDS AND USES THEREOF” (Pfizer Inc., priority 2023, published 2024).
